In US20050112573A1, “Method of detecting toxic substance” (priority 2001, published 2005):

System: yeast genes (level of expressed mRNA)
Test: DNA chip analysis of expressed mRNA of yeast genes after 2 h culture with a toxic chemical substance
Format: cell-based, Saccharomyces cerevisiae S288C
Conditions: for The level of expressed mRNA in the presence of chemical substance/ (ratio to absence of chemical substance): stress protein genes, DNA chip
Protocol: Yeast (Saccharomyces cerevtisiae S288C (α SUC2mal mel gap2 CUP1)) were cultured at 25° C. on YPD medium (yeast extract 1%, polypepton 2%, glucose 2%). One of toxic chemical substances was added to the cell at logarithmic growth phase, and the cell was further cultured for two hours. Cell was cultured without any chemical substance in the same condition, and was used as control. Concentrations of the chemical substances were defined to inhibit the growth of the yeast but not lead to death.
After the completion of cultivation, the culture was centrifuged to collect the cells. To the cells, sodium acetate buffer (50 mM sodium acetate, 10 mM EDTA, 1% SDS) was added, and the mixture was shaken at 65° C. for five minutes, followed by returning to room temperature, and obtaining the supernatant, which procedure was repeated two times. To the supernatant, ½ amount of a solution of phenol/chloroform was added, and the mixture was centrifuged to give a supernatant, which was added with an equal amount of chloroform, and the mixture was centrifuged to give a supernatant. To the supernatant, an equal amount of isopropanol containing 0.3 M sodium acetate was added, and the mixture was allowed to stand at room temperature for 30 minutes, after which the mixture was centrifuged to give a sediment of the whole RNAs. Seventy % ethanol was added to the sediment, and the mixture was again centrifuged to give a sediment, which was then dried and dissolved in water. mRNA was isolated from the whole RNAs as followings. In view of the fact that a poly A chain is attached to the 3′ terminus of mRNA, a polynucleotide having a poly T structure which was immobilized on the surface of latex beads was used to trap the mRNA, and then the mRNA was washed and eluted with spine column (Oligotex-dT30<Super>mRNA Purification Kit, Takara). Reverse transcription of the mRNA was conducted with a reverse transcriptase (Super Script II Reverse Transcriptase; catalogue No. 18064-014, GibcoBRL) using fluorescence-labeled nucleotides to give cDNAs that were introduced with Cy3-dUTP or Cy5-dUTP during the reverse transcription.
The labeled cDNAs were dissolved in TE buffer (10 mM Tris-HCl/1 mM EDTA, pH8.0), and the solution was dropped on the DNA chip containing the whole genes of yeast (DNA Chip Research Inc. Japan) so that the cDNAs were hybridized on the DNA chip at 65° C. for over 12 hours. The fluoresces intensity of the DNA chip was read with a scanner, and the ratio relative to the fluorescence intensity resulting from the absence of chemical substance was estimated as the following, which is shown in Tables 1 to 9: [formula]
In the Tables, “Intensity” indicated in the rightmost column is a value of the level of expressed mRNA of each gene in control cells as divided by the average level of the expressions of the whole genes.

CCCCCCCCCCCCOS(=O)(=O)[O-].[Na+] [(18), sodium lauryl sulfate]
The level of expressed mRNA in the presence of chemical substance/ in its absence, gene YDL078C (yeast gene YDL078C, ratio of DNA chip fluorescence intensity to that without chemical substance): 2.0
The level of expressed mRNA in the presence of chemical substance/ (in its absence), gene YDL215C (yeast gene YDL215C, ratio of DNA chip fluorescence intensity to that without chemical substance): 1.6
The level of expressed mRNA in the presence of chemical substance/The level of expressed mRNA in the absence of chemical substance (yeast gene YDL238C): 1.3
The level of expressed mRNA in the presence of chemical substance/The level of expressed mRNA in the absence of chemical substance (yeast gene YDR055W): 1.9
The level of expressed mRNA in the presence of chemical substance/ (in its absence), gene YDR073W (yeast gene YDR073W, ratio of DNA chip fluorescence intensity to that without chemical substance): 2.3
The level of expressed mRNA in the presence of chemical substance/ in its absence, gene YDR079W (yeast gene YDR079W, energy system protein genes, 2 h culture with the chemical, ratio to control without chemical): 1.3
The level of expressed mRNA in the presence of chemical substance/ (ratio to absence), gene YDR079W (yeast gene YDR079W, mitochondria-located protein genes, 2 h culture with chemical): 1.3
The level of expressed mRNA in the presence of chemical substance/The level of expressed mRNA in the absence of chemical substance (yeast gene YDR084C): 1.3
The level of expressed mRNA in the presence of chemical substance/The level of expressed mRNA in the absence of chemical substance (yeast gene YDR085C): 1.8
The level of expressed mRNA in the presence of chemical substance/The level of expressed mRNA in the absence of chemical substance (yeast gene YDR104C): 1.0
The level of expressed mRNA in the presence of chemical substance/The level of expressed mRNA in the absence of chemical substance (yeast gene YDR115W): 1.4
The level of expressed mRNA in the presence of chemical substance/The level of expressed mRNA in the absence of chemical substance (yeast gene YDR259C): 0.8
The level of expressed mRNA in the presence of chemical substance/ (in its absence), gene YDR297W (yeast gene YDR297W, ratio of DNA chip fluorescence intensity to that without chemical substance): 1.9
The level of expressed mRNA in the presence of chemical substance/The level of expressed mRNA in the absence of chemical substance (yeast gene YDR315C): 1.2
The level of expressed mRNA in the presence of chemical substance/The level of expressed mRNA in the absence of chemical substance (yeast gene YDR358W): 1.9
The level of expressed mRNA in the presence of chemical substance/ (ratio to absence), gene YDR377W (yeast gene YDR377W, mitochondria-located protein genes, 2 h culture with chemical): 2.5
The level of expressed mRNA in the presence of chemical substance/ (in its absence), gene YDR387C (yeast gene YDR387C, ratio of DNA chip fluorescence intensity to that without chemical substance): 1.1
The level of expressed mRNA in the presence of chemical substance/The level of expressed mRNA in the absence of chemical substance (yeast gene YDR388W): 1.3
The level of expressed mRNA in the presence of chemical substance/The level of expressed mRNA in the absence of chemical substance (yeast gene YDR432W): 0.7
The level of expressed mRNA in the presence of chemical substance/The level of expressed mRNA in the absence of chemical substance (yeast gene YDR481C): 1.4
The level of expressed mRNA in the presence of chemical substance/The level of expressed mRNA in the absence of chemical substance (yeast gene YDR510W): 1.5
The level of expressed mRNA in the presence of chemical substance/ (ratio to absence of chemical substance) (yeast gene YEL039C): 1.1
The level of expressed mRNA in the presence of chemical substance/The level of expressed mRNA in the absence of chemical substance (yeast gene YEL042W): 0.8
The level of expressed mRNA in the presence of chemical substance/The level of expressed mRNA in the absence of chemical substance (yeast gene YEL066W): 1.1
The level of expressed mRNA in the presence of chemical substance/ (in its absence), gene YER015W (yeast gene YER015W, ratio of DNA chip fluorescence intensity to that without chemical substance): 2.6
The level of expressed mRNA in the presence of chemical substance/The level of expressed mRNA in the absence of chemical substance (yeast gene YER039C): 1.1
The level of expressed mRNA in the presence of chemical substance/ (ratio to absence of chemical substance) (yeast gene YER057C): 1.8
The level of expressed mRNA in the presence of chemical substance/The level of expressed mRNA in the absence of chemical substance (yeast gene YER107C): 1.2
The level of expressed mRNA in the presence of chemical substance/The level of expressed mRNA in the absence of chemical substance (yeast gene YER130C): 2.5
The level of expressed mRNA in the presence of chemical substance/The level of expressed mRNA in the absence of chemical substance (yeast gene YFL028C): 1.5
The level of expressed mRNA in the presence of chemical substance/The level of expressed mRNA in the absence of chemical substance (yeast gene YFL043C): 1.2
The level of expressed mRNA in the presence of chemical substance/ (in its absence), gene YGL035C (yeast gene YGL035C, ratio of DNA chip fluorescence intensity to that without chemical substance): 1.2
The level of expressed mRNA in the presence of chemical substance/ (in its absence), gene YGL115W (yeast gene YGL115W, ratio of DNA chip fluorescence intensity to that without chemical substance): 1.2
The level of expressed mRNA in the presence of chemical substance/ (ratio to absence of chemical substance) (yeast gene YGL115W): 1.2
The level of expressed mRNA in the presence of chemical substance/The level of expressed mRNA in the absence of chemical substance (yeast gene YGL158W): 1.1
The level of expressed mRNA in the presence of chemical substance/ (ratio to absence), gene YGL187C (yeast gene YGL187C, mitochondria-located protein genes, 2 h culture with chemical): 2.4
The level of expressed mRNA in the presence of chemical substance/ (in its absence), gene YGL205W (yeast gene YGL205W, ratio of DNA chip fluorescence intensity to that without chemical substance): 9.1
The level of expressed mRNA in the presence of chemical substance/The level of expressed mRNA in the absence of chemical substance (yeast gene YGL229C): 0.9
The level of expressed mRNA in the presence of chemical substance/ in its absence, gene YGR062C (yeast gene YGR062C, energy system protein genes, 2 h culture with the chemical, ratio to control without chemical): 1.1
The level of expressed mRNA in the presence of chemical substance/ (ratio to absence), gene YGR062C (yeast gene YGR062C, mitochondria-located protein genes, 2 h culture with chemical): 1.1
The level of expressed mRNA in the presence of chemical substance/ (in its absence), gene YGR096W (yeast gene YGR096W, ratio of DNA chip fluorescence intensity to that without chemical substance): 1.0
The level of expressed mRNA in the presence of chemical substance/The level of expressed mRNA in the absence of chemical substance (yeast gene YGR136W): 1.8
The level of expressed mRNA in the presence of chemical substance/The level of expressed mRNA in the absence of chemical substance (yeast gene YGR189C): 1.7
The level of expressed mRNA in the presence of chemical substance/The level of expressed mRNA in the absence of chemical substance (yeast gene YGR213C): 8.5
The level of expressed mRNA in the presence of chemical substance/The level of expressed mRNA in the absence of chemical substance (yeast gene YGR257C): 1.3
The level of expressed mRNA in the presence of chemical substance/ (in its absence), gene YGR287C (yeast gene YGR287C, ratio of DNA chip fluorescence intensity to that without chemical substance): 1.1
The level of expressed mRNA in the presence of chemical substance/ (in its absence), gene YGR288W (yeast gene YGR288W, ratio of DNA chip fluorescence intensity to that without chemical substance): 1.3
The level of expressed mRNA in the presence of chemical substance/ (ratio to absence of chemical substance) (yeast gene YHL028W): 2.5
The level of expressed mRNA in the presence of chemical substance/ (ratio to absence of chemical substance) (yeast gene YHL046C): 0.9
The level of expressed mRNA in the presence of chemical substance/The level of expressed mRNA in the absence of chemical substance (yeast gene YHR004C): 1.6
The level of expressed mRNA in the presence of chemical substance/The level of expressed mRNA in the absence of chemical substance (yeast gene YHR071W): 1.0
The level of expressed mRNA in the presence of chemical substance/The level of expressed mRNA in the absence of chemical substance (yeast gene YHR139C): 1.3
The level of expressed mRNA in the presence of chemical substance/The level of expressed mRNA in the absence of chemical substance (yeast gene YHR142W): 1.3
The level of expressed mRNA in the presence of chemical substance/ (in its absence), gene YHR210C (yeast gene YHR210C, ratio of DNA chip fluorescence intensity to that without chemical substance): 1.2
The level of expressed mRNA in the presence of chemical substance/ (in its absence), gene YIL006W (yeast gene YIL006W, ratio of DNA chip fluorescence intensity to that without chemical substance): 0.9
The level of expressed mRNA in the presence of chemical substance/ (ratio to absence of chemical substance) (yeast gene YIL011W): 0.8
The level of expressed mRNA in the presence of chemical substance/The level of expressed mRNA in the absence of chemical substance (yeast gene YIL123W): 1.0
